From patent publication US10830762B2, “Compositions and methods for inducing conformational changes in cereblon and other E3 ubiquitin ligases” (Celgene Corporation, priority 2015, dated 2020)

Columns and labels:
[1] = tested on: TMD8 (ABC) or Karpas 422 (GCB) cells; assay: 3H-thymidine incorporation proliferation assay with lenalidomide co-treatment; type: cell-based
[2] = target: T1, CRBN (Homo sapiens, UniProt Q96SW2, E377V); assay: Thalidomide analog bead assay with extracts of DF15R cells re-expressing wild type or mutant CRBN; type: binding; settings: CRBN E377V mutant; preincubation of cell extracts with free compound
T1 construct: re-express full length wild type (CRBN^WT); expressed in transfected cells; host or cells: DF15R (CRBN-deficient myeloma) cells, lentiviral transduction, cell extract
Method: (§1) DF15, DF15R or DF15R derived cell line extracts were prepared in NP 40 lysis buffer (0.5% NP40, 50 mM Tris HCl (pH 8.0), 150 mM NaCl, 0.5 mM DTT, 0.25 mM PMSF, 1× protease inhibitor mix (Roche, Indianapolis, Ind.) at approximately 2×10^8 cells per ml […]. Cell debris and nucleic acids were cleared by centrifugation (14,000 rpm 30 min 4° C.). In competition experiments 0.5 ml (3-5 mg protein) aliquots of the resulting extracts were preincubated (15 min room temp.) with 5 μl DMSO (control) or 5 μl compound at varying concentrations in DMSO. Thalidomide analog-coupled beads (0.3-0.5 mg) were added to protein extracts and samples rotated (2 hours, 4° C.). Beads were washed three times with 0.5 ml NP40 buffer, and then bound proteins were eluted with SDS-PAGE sample buffer.
(§2) Cell extracts from these lines were then used to assay the ability of CRBN to bind immunomodulatory agent compound.
(§3) Cell extracts from this line were used to assay the ability of CRBN^E377V to bind Immunomodulatory agent compound.

[3] = tested on: DF15R myeloma cells; assay: Cell proliferation assay of DF15R cells re-expressing wild type or mutant CRBN treated with pomalidomide; type: cell-based
Method: (A) Cell lines re-expressing full-length CRBN wild-type. W386A or W400A mutants were tested for the ability to bind immunomodulatory agent compounds. Assay was repeated at least three times. Representative Western blot of representative experiment is shown. (B) Cell proliferation assay of DF15 (sensitive). DF15R (resistant; CRBN^null), CRBNWT, CRBNW386A; CRBN400 cells treated with a dose response of pomalidomide. Assays were done in triplicate and error bars representative s.d. Data for each cell line was normalized to treatment with vehicle (DMSO). (C) Western blots of key downstream effectors of immunomodulatory agent resistance.
(A) Cell lines re-expressing RFP or full length CRBN wild type or E377V mutant were tested for the ability of CRBN proteins to bind immunomodulatory agent compounds. Assay was repeated at least three times. Representative Western blot of representative experiment is shown. (B) Cell proliferation assay of DF15 (sensitive), DF15R (resistant; CRBN^null), CRBN^WT, CRBN^E377V cells treated with a dose response of pomalidomide. Assays were done in triplicate and error bars represent s.d. Data for each cell line was normalized to treatment with vehicle (DMSO).
The antiproliferative effect of immunomodulatory agent compounds on myeloma cells is mediated through CRBN protein. […]

[4] = tested on: H929 and U266 multiple myeloma cell lines; assay: Cell viability by flow cytometry in CRBN inducible shRNA knockdown cells; type: cell-based; settings: CRBN inducible knockdown vs shControl; 5 day treatment
Method: (A) An inducible shRNA construct targeting CRBN or a control construct was transduced into the multiple myeloma cell lines H929 and U266. Inducible shRNA expression (marked by turbo-RFP) was monitored by flow cytometry over a period of 1 to 9 days as indicated in the histograms (Top row). […] (B) CRBN protein expression was quantified by Western blotting. […] (D)-(F) After 9 days of shRNA inducible knock-down, cells were treated with increasing doses of pomalidomide and compound effect in cell viability was assayed by flow cytometry after 5 day treatment. […] Data are shown as mean of three independent experiments±s.d.
Inducible shRNA constructs targeting CRBN or a control construct (Open Biosystems) were transduced using spinoculation methodology into the multiple myeloma cell lines H929 and U266. Stably transduced cells were selected with puromycin. Inducible shRNA expression (marked by RFP) was monitored by fluorescence microscopy and flow cytometry using 1 μg/mL doxycycline. CRBN protein expression was quantified by Western blotting. Cell proliferation and viability were assessed by 7AAD/flow cytometry assays.

[5] = tested on: human PBMCs; assay: IL2 release co-stimulation in human PBMCs treated with anti-CD3; type: cell-based
[6] = tested on: mouse splenocytes; assay: IL2 induction in mouse splenocytes / mouse PBMC treated with anti-CD3; type: cell-based
Source text: Data are shown as mean±s.d. (B) Costimulation of IL2 release by anti-CD28 (squares) or pomalidomide (circles) in mouse PBMC treated with anti-CD3. Data are shown as mean±s.d.

[7] = target: MBP-IKZF1 (a.a. 140-168) / CRBN-DDB1 (Homo sapiens, UniProt Q13422+Q96SW2); settings: 100 uM compound; IKZF1 domain with one predicted zinc finger
[8] = target: CRBN (Homo sapiens, UniProt Q96SW2); assay: Thalidomide analog bead assay with extracts of DF15R cells re-expressing wild type or mutant CRBN; type: binding; design: re-express full length wild type (CRBN^WT); expressed in transfected cells; host or cells: DF15R (CRBN-deficient myeloma) cells, lentiviral transduction, cell extract; settings: recombinant CRBN WT expressed in DF15R; preincubation of cell extracts with free compound
Method: as §1, §2, §3

## Cc1nc2cccc(N)c2c(=O)n1C1CCC(=O)NC1=O (stereo not drawn) [Compound A, 3-(5-amino-2-methyl-4-oxo-4H-quinazolin-3-yl)-piperidine-2,6-dione]
[1]; co-treatment with 10 μM lenalidomide, 3H-thymidine incorporation
  anti-proliferative effects on co-treatment with lenalidomide: blocks anti-proliferative effects

## Nc1cccc2c1CN(C1CCC(=O)NC1=O)C2=O (stereo not drawn) [lenalidomide, 3-(4-amino-1-oxo-1,3-dihydro-isoindol-2-yl)-piperidine-2,6-dione, reference compound]
[1]; co-culture with Compound A or Compound C
  competition for CRBN: competes with Compound A and Compound C for CRBN

## Nc1cccc2c1C(=O)N(C1CCC(=O)NC1=O)C2=O (stereo not drawn) [pomalidomide]
[2]
  competition for CRBN binding to thalidomide analog-beads: competed
[3]; DF15R re-expressing CRBN E377V
  antiproliferative sensitivity: unable to rescue sensitivity
[3]; DF15R re-expressing CRBN WT
  antiproliferative effect: regained antiproliferative effect
[4]
  anti-proliferative effects in CRBN knockdown cells: reduced anti-proliferative effects
[5]
  IL2 release: Co-stimulation of IL2 release
[6]
  IL-2 induction: resistant to the IL-2 inducing effects
[7]
  pull down of CRBN-DDB1 by minimal IKZF1 domain: sufficient to pull down CRBN-DDB1
[8]
  competition for CRBN binding to thalidomide analog-beads: competed for binding to the beads

## O=C1CCC(N2C(=O)c3ccccc3C2=O)C(=O)N1 (stereo not drawn) [thalidomide]
[2]
  competition for CRBN binding to thalidomide analog-beads: competed
[8]
  competition for CRBN binding to thalidomide analog-beads: competed for binding to the beads
